Consider five compounds from publication PMC5887109, “Unravelling the Molecular Determinants of Bee Sensitivity to Neonicotinoid Insecticides” (Current Biology, 2018).

Series [1] addresses T1, CYP9Q3 (Apis mellifera, UniProt A0A7M7LMV1). Nature of the series: Activity of recombinant CYP9Q3 against fluorescent coumarin model substrates. Type of series: biochemical, A. mellifera. The procedure:
(§1) The activity of individual A. mellifera and B. terrestris recombinant P450s were tested against seven fluorescent model substrates (all purchased from Sigma); 7-methoxy-coumarin (MC), 7-Methoxy-4-(tri-fluoromethyl)-coumarin (MFC), 7-ethoxy-coumarin (EC), 7-benzyloxy-4-(trifluoromethyl)-coumarin (BFC), 7-ethoxy-4-trifluoro-methylcoumarin (EFC), 7-benzyloxymethoxy-4-trifluoromethyl coumarin (BOMFC), and 7-p-methoxy-benzyloxy-4-trifluoro coumarin (MOBFC). Assays were carried out in black flat-bottomed 96-well plates in a 100 μL reaction containing 2 pmol of P450 per 50 μg of protein (B. terrestris) or 50 μg/well (A. mellifera), 1 mM of NADPH (Sigma) and […] of a model substrate (Sigma). […] Data were recorded using a SpectraMax Gemini XPS (B. terrestris) or a SpectraMax M2 (A. mellifera) at the excitation/emission wavelength suitable for each model substrate (MC, EC at 390-465, BFC, MFC at 410-535, EFC at 410-510 and BOMFC and MOBFC at 405-510 nm). […] The reactions were incubated at 25°C (B. terrestris) or 30°C (A. mellifera) for a further 15 min and the data were recorded at the required excitation/emission wavelengths stated above. […] The florescence was measured as above at the corresponding wavelengths for each model substrate. […] This was then subtracted from the average fluorescence measurement of each P450 along with the average control measurements.

Series [2] has as its target T2, CYP9Q4 (Bombus terrestris, UniProt A0A9B0BBT5). Nature of the series: Activity of recombinant CYP9Q4 against fluorescent coumarin model substrates. Type of series: biochemical, B. terrestris. The procedure:
The activity of individual A. mellifera and B. terrestris recombinant P450s were tested against seven fluorescent model substrates (all purchased from Sigma); 7-methoxy-coumarin (MC), 7-Methoxy-4-(tri-fluoromethyl)-coumarin (MFC), 7-ethoxy-coumarin (EC), 7-benzyloxy-4-(trifluoromethyl)-coumarin (BFC), 7-ethoxy-4-trifluoro-methylcoumarin (EFC), 7-benzyloxymethoxy-4-trifluoromethyl coumarin (BOMFC), and 7-p-methoxy-benzyloxy-4-trifluoro coumarin (MOBFC). Assays were carried out in black flat-bottomed 96-well plates in a 100 μL reaction containing 2 pmol of P450 per 50 μg of protein (B. terrestris) or 50 μg/well (A. mellifera), 1 mM of NADPH (Sigma) and […] of a model substrate (Sigma). Three replicates were carried out for each data point. P450s incubated without NADPH and wells containing only potassium phosphate buffer served as controls. Samples were incubated at 25°C for 45 min (B. terrestris) or 30°C for 30 min (A. mellifera). Data were recorded using a SpectraMax Gemini XPS (B. terrestris) or a SpectraMax M2 (A. mellifera) at the excitation/emission wavelength suitable for each model substrate (MC, EC at 390-465, BFC, MFC at 410-535, EFC at 410-510 and BOMFC and MOBFC at 405-510 nm). As these substrates have a similar emission wavelength to NADPH (460 nm) the reaction was terminated prior to measurement by the addition of 100μL of a stop solution (25% DMSO, 0.05 M Tris/HCL pH10, 5 mM glutathione oxidised, and 0.2 U glutathione reductase). The reactions were incubated at 25°C (B. terrestris) or 30°C (A. mellifera) for a further 15 min and the data were recorded at the required excitation/emission wavelengths stated above. 7-hydroxy-4-(trifluoromethyl)-coumarin (HFC) (Sigma) was used to generate a standard curve for model substrates BFC, EFC, MFC, MOBFC, and BOMFC and 7-hydroxycoumarin (HC) (Sigma) for model substrates EC and MC. […] The florescence was measured as above at the corresponding wavelengths for each model substrate. […] This was then subtracted from the average fluorescence measurement of each P450 along with the average control measurements.

Series [3] has as its system CYP9Q5. Nature of the series: Activity of recombinant CYP9Q5 against fluorescent coumarin model substrates. The series is classed as biochemical, B. terrestris. The procedure:
as §1

For series [4], the target named is T3, CYP9Q1 (Apis mellifera, UniProt A0A7M7GTV9). As to the kind of experiment: Activity of recombinant CYP9Q1 against fluorescent coumarin model substrates. The series is classed as biochemical, A. mellifera. The protocol:
as §1

For series [5], the target named is T3, CYP9Q1. As to the kind of experiment: in vitro. The conditions noted are these: hydroxylation (thiacloprid, imidacloprid) or N-desmethylation (acetamiprid). An excerpt:
(§2) All bee P450 (see Table S3 for accession numbers) and house fly NADPH-dependent cytochrome P450 reductase (CPR) (GenBank accession number Q07994) genes were obtained by gene synthesis (Geneart, CA, USA) and inserted into the pDEST8 expression vector (Invitrogen). Codon optimization of all bee genes was used to optimize expression in lepidopteran cell lines. The PFastbac1 vector with no inserted DNA was used to produce a control virus. The recombinant baculovirus DNA was constructed and transfected into Trichoplusia ni (High five cells, Thermo Fisher) using the Bac-to-Bac baculovirus expression system (Invitrogen) according to the manufacturer’s instructions. The titer of the recombinant virus was determined following protocols of the supplier. High Five cells grown to a density of 2 × 10^6 cells ml^-1 were co-infected with recombinant baculoviruses containing each bee P450 and CPR with a range of MOI (multiplicity of infection) ratios to identify the optimal conditions. Control cells were co-infected with the baculovirus containing vector with no insert (ctrl-virus) and the recombinant baculovirus expressing CPR using the same MOI ratios. Ferric citrate and δ-aminolevulinic acid hydrochloride were added to a final concentration of 0.1 mM at the time of infection and 24 h after infection to compensate the low levels of endogenous heme in the insect cells. After 48 h, cells were harvested, washed with PBS, and microsomes of the membrane fraction prepared according to standard procedures and stored at −80°C [31]. Briefly, pellets were homogenized for 30 s in 0.1M Na/K-phosphate buffer, pH 7.4 containing 1mM EDTA and DTT and 200mM sucrose using a Fastprep (MP Biomedicals), filtered through miracloth and centrifuging for 10 min at 680 g at 4°C. The supernatant was then centrifuged for 1 h at 100,000 g at 4°C, with the pellet subsequently resuspended in 0.1M Na/K-phosphate buffer, pH 7.6 containing 1mM EDTA and DTT and 10% glycerol using a Dounce tissue grinder. P450 expression and functionality was estimated by measuring CO-difference spectra in reduced samples using a Specord 200 Plus Spectrophotometer (Analytik Jena) and scanning from 500 nm to 400 nm. The protein content of samples was determined using Bradford reagent (Sigma) and bovine serum albumin (BSA) as a reference.
(§3) The total assay volume was 200 μL using three replicates for each data point. Microsomes incubated without NADPH served as a control. The assay was stopped by the addition of ice-cold acetonitrile (to 80% final concentration), centrifuged for 10 min at 3000 g and the supernatant subsequently analyzed by tandem mass spectrometry as described previously. For the chromatography on a Waters Acquity HSS T3 column (2.1x50mm, 1.8μm), acetonitrile/water/0.1% formic acid was used as the eluent in gradient mode. […] The peak integrals were calibrated externally against a standard calibration curve. […] Substrate turnover from two independent reactions were plotted versus controls and Michaelis-Menten kinetics determined using GraphPad Prism version 7 (GraphPad Software, CA, USA).

Series [6] concerns the target T1, CYP9Q3. Nature of the series: in vitro. The conditions noted are these: hydroxylation (thiacloprid, imidacloprid) or N-desmethylation (acetamiprid).
Source text: as §2, §3

The next series deals with T4, CYP9Q2 (Apis mellifera, UniProt A0A7M7R6F2).
T4 sequence (A0A7M7R6F2 1-532): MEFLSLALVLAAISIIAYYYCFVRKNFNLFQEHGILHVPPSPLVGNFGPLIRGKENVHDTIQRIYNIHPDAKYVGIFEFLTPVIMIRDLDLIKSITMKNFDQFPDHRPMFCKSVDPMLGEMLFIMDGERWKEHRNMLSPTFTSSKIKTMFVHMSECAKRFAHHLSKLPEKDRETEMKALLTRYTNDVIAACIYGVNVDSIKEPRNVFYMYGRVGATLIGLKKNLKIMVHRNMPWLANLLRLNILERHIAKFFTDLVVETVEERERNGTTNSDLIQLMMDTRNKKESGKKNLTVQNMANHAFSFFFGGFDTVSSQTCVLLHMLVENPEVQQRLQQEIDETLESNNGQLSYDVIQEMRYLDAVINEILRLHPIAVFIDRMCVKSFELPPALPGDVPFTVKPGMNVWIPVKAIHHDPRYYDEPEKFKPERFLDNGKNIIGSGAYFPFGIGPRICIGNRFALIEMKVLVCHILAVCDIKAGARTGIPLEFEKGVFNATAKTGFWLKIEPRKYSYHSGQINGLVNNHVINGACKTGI
T4 sequence (Q07994 1-671 partner): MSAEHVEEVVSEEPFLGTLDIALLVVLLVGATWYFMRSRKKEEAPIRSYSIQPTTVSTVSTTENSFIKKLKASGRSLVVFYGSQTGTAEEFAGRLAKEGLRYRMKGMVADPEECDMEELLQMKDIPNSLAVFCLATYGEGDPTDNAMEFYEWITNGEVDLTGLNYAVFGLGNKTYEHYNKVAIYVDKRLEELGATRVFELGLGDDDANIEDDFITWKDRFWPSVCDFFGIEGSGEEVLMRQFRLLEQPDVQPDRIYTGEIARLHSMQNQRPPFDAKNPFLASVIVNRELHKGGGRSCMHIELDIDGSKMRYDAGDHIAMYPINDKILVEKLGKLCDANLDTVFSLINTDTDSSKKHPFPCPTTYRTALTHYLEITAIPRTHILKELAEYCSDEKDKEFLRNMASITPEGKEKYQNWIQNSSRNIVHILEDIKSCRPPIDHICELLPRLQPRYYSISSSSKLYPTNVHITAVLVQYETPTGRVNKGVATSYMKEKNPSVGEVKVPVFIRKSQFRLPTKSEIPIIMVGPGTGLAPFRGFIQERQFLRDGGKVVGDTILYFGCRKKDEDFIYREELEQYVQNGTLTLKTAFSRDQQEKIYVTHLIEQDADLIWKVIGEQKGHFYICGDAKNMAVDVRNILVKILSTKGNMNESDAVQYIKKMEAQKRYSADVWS
As to the kind of experiment: in vitro. Conditions: hydroxylation (thiacloprid, imidacloprid) or N-desmethylation (acetamiprid).
Source text: as §2, §3

Series [7] concerns CYP9Q5. As to the kind of experiment: Metabolism by recombinant CYP9Q5/CPR microsomes, LC-MS/MS. The conditions noted are these: hydroxylation (thiacloprid) or N-desmethylation (acetamiprid).
Source text: as §2
(§4) The total assay volume was 200 μL using three replicates for each data point. […] The assay was stopped by the addition of ice-cold acetonitrile (to 80% final concentration), centrifuged for 10 min at 3000 g and the supernatant subsequently analyzed by tandem mass spectrometry as described previously. […] Substrate turnover from two independent reactions were plotted versus controls and Michaelis-Menten kinetics determined using GraphPad Prism version 7 (GraphPad Software, CA, USA).

Series [8] has as its target T2, CYP9Q4. As to the kind of experiment: Metabolism by recombinant CYP9Q4/CPR microsomes, LC-MS/MS. The conditions noted are these: hydroxylation (thiacloprid) or N-desmethylation (acetamiprid).
Source text: as §2, §4

A further series deals with honeybee. The conditions noted are these: cited from earlier work.

T2 sequence (A0A9B0BBT5 entry or part of it, one chain of several): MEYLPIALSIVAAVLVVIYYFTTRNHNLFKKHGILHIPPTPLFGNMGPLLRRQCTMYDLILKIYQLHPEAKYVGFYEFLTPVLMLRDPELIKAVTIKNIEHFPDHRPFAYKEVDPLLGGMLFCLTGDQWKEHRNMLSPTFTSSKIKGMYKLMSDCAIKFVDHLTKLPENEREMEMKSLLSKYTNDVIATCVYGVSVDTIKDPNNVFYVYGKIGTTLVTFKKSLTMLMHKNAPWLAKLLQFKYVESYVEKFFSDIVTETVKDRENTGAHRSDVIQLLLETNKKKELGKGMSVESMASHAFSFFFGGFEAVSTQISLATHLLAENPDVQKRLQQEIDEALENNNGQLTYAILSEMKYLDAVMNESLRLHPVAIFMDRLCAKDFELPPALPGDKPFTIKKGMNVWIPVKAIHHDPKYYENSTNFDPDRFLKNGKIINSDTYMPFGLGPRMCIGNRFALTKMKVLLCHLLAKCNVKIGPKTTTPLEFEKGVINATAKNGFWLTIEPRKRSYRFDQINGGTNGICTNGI
T3 sequence (A0A7M7GTV9 entry or part of it, one chain of several): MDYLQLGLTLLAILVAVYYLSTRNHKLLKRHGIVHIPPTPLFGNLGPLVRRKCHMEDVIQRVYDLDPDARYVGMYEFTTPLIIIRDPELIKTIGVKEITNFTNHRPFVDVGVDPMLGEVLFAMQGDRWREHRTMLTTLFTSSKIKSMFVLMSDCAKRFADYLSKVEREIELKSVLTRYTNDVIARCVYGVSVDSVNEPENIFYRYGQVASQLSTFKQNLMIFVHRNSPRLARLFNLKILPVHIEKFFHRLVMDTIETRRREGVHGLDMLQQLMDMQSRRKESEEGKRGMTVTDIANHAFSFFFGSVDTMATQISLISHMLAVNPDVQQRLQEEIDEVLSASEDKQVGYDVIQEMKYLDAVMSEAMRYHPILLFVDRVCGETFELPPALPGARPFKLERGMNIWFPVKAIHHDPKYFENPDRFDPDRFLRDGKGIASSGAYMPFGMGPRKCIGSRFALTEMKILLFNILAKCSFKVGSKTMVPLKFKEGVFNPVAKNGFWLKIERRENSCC
T1 sequence (A0A7M7LMV1 entry or part of it, one chain of several): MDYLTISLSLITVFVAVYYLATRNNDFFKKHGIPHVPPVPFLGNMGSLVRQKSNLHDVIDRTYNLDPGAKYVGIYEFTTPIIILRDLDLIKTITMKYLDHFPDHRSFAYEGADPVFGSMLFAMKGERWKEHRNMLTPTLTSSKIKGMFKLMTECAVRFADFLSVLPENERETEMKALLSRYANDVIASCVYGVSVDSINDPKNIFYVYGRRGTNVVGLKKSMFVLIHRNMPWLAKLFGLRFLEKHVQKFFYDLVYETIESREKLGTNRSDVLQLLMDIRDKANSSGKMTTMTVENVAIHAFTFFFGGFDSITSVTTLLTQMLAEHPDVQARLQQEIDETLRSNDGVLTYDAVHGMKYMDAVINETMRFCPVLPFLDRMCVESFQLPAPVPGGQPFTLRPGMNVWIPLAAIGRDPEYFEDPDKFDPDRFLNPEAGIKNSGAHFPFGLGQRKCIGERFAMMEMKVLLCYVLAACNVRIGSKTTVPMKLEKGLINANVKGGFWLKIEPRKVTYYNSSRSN

For the compound `O=c1cc(C(F)(F)F)c2ccc(OCc3ccccc3)cc2o1` [BFC, 7-benzyloxy-4-trifluoromethyl coumarin], the “activity against fluorescent coumarin model substrate (in words)” value (from here on “activity … (in words)”) on CYP9Q3 [1] was “highest specific activity”; at CYP9Q4 [2], “no activity”; in the series with CYP9Q5 [3] it was “no activity”; on CYP9Q1 [4] it was “highest specific activity”.
Take `COc1ccc2c(C(F)(F)F)cc(=O)oc2c1` [MFC, 7-methoxy-4-trifluoromethyl coumarin]: the “activity … (in words)” value on CYP9Q4 [2] is “activity”.
Regarding `COc1ccc(COc2ccc3c(C(F)(F)F)cc(=O)oc3c2)cc1` [MOBFC, 7-p-methoxy-benzyloxy-4-trifluoro coumarin], the “activity … (in words)” value on CYP9Q4 [2] is on record as “activity”.
As for `C/C(=N\C#N)N(C)Cc1ccc(Cl)nc1` [acetamiprid], the “metabolism by the recombinant P450 (in words)” value is “capacity to metabolize” on CYP9Q1 [5]; “highest activity” at CYP9Q3 [6]; “highest activity” at CYP9Q2; “highest activity” in the series with CYP9Q5 [7]; “highest activity” at CYP9Q4 [8].
Turning to `CCCC1COC(Cn2cncn2)(c2ccc(Cl)cc2Cl)O1` (stereo not shown) [propiconazole], in the series with honeybee (synergist plus imidacloprid), the “effect of P450 inhibitor on honeybee sensitivity to imidacloprid” value is listed as “almost no effect”. For the same compound, in the series with honeybee (synergist plus thiacloprid), the “increase of honeybee sensitivity to thiacloprid by P450 inhibitor” value is given as 559 fold.
